# From PubChem BioAssay (NCI)
#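 Five compound concentrations were applied to cells in 96-well plates for 48 hours; endpoints were derived by simple linear interpolation of the resulting dose-response curve. Here, GI50 denotes the concentration required for 50% inhibition of growth. TGI is the concentration that stops growth completely.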
# Legend:
# Test in all cases: NCI tumour cell line growth inhibition, 48 h
# 786-0 renal = system: 786-0 renal
# A498 renal = system: A498 renal
# A549 NSCLC = system: A549 NSCLC
# ACHN renal = system: ACHN renal
# BT-549 breast = system: BT-549 breast
# CAKI-1 renal = system: CAKI-1 renal
# CCRF-CEM leukemia = system: CCRF-CEM leukemia
# COLO 205 colon = system: COLO 205 colon
# DU-145 prostate = system: DU-145 prostate
# EKVX NSCLC = system: EKVX NSCLC
# HCC-2998 colon = system: HCC-2998 colon
# HCT-116 colon = system: HCT-116 colon
# HCT-15 colon = system: HCT-15 colon
# HL-60(TB) leukemia = system: HL-60(TB) leukemia
# HOP-62 NSCLC = system: HOP-62 NSCLC
# HOP-92 NSCLC = system: HOP-92 NSCLC
# HS 578T breast = system: HS 578T breast
# HT29 colon = system: HT29 colon
# IGROV1 ovarian = system: IGROV1 ovarian
# K-562 leukemia = system: K-562 leukemia
# KM12 colon = system: KM12 colon
# LOX IMVI melanoma = system: LOX IMVI melanoma
# M14 melanoma = system: M14 melanoma
# MALME-3M melanoma = system: MALME-3M melanoma
# MCF7 breast = system: MCF7 breast
# MDA-MB-231 breast = system: MDA-MB-231 breast
# MDA-MB-435 = system: MDA-MB-435
# MDA-MB-468 breast = system: MDA-MB-468 breast
# MOLT-4 leukemia = system: MOLT-4 leukemia
# NCI-H226 lung = system: NCI-H226 lung
# NCI-H23 lung = system: NCI-H23 lung
# NCI-H460 lung = system: NCI-H460 lung
# NCI-H522 lung = system: NCI-H522 lung
# NCI/ADR-RES ovarian = system: NCI/ADR-RES ovarian
# OVCAR-3 ovarian = system: OVCAR-3 ovarian
# OVCAR-4 ovarian = system: OVCAR-4 ovarian
# OVCAR-5 ovarian = system: OVCAR-5 ovarian
# OVCAR-8 ovarian = system: OVCAR-8 ovarian
# PC-3 prostate = system: PC-3 prostate
# RPMI-8226 leukemia = system: RPMI-8226 leukemia
# RXF 393 renal = system: RXF 393 renal
# SF-268 CNS = system: SF-268 CNS
# SF-295 CNS = system: SF-295 CNS
# SF-539 CNS = system: SF-539 CNS
# SK-MEL-2 melanoma = system: SK-MEL-2 melanoma
# SK-MEL-28 melanoma = system: SK-MEL-28 melanoma
# SK-MEL-5 melanoma = system: SK-MEL-5 melanoma
# SK-OV-3 ovarian = system: SK-OV-3 ovarian
# SN12C renal = system: SN12C renal
# SNB-19 CNS = system: SNB-19 CNS
# SNB-75 CNS = system: SNB-75 CNS
# SR leukemia = system: SR leukemia
# SW-620 colon = system: SW-620 colon
# T-47D breast = system: T-47D breast
# TK-10 renal = system: TK-10 renal
# U251 CNS = system: U251 CNS
# UACC-257 melanoma = system: UACC-257 melanoma
# UACC-62 melanoma = system: UACC-62 melanoma
# UO-31 renal = system: UO-31 renal
smiles,measurement,setting,value
COC(=O)c1c(C(=O)OC)c2ccc3c4ccccc4ccc3n2c1C(=O)C(C)Br (stereo not drawn),GI50,786-0 renal,21.1 µM
same,TGI,786-0 renal,> 100 µM
same,GI50,A498 renal,88.1 µM
same,TGI,A498 renal,> 100 µM
same,GI50,A549 NSCLC,42.2 µM
same,TGI,A549 NSCLC,> 100 µM
same,GI50,ACHN renal,22.2 µM
same,TGI,ACHN renal,> 100 µM
same,GI50,BT-549 breast,6.18 µM
same,TGI,BT-549 breast,40.2 µM
same,GI50,CAKI-1 renal,21.2 µM
same,TGI,CAKI-1 renal,> 100 µM
same,GI50,CCRF-CEM leukemia,3.92 µM
same,TGI,CCRF-CEM leukemia,> 100 µM
same,GI50,COLO 205 colon,38.8 µM
same,TGI,COLO 205 colon,> 100 µM
same,GI50,DU-145 prostate,> 100 µM
same,TGI,DU-145 prostate,> 100 µM
same,GI50,EKVX NSCLC,42.4 µM
same,TGI,EKVX NSCLC,> 100 µM
same,GI50,HCC-2998 colon,39.9 µM
same,TGI,HCC-2998 colon,> 100 µM
same,GI50,HCT-116 colon,11 µM
same,TGI,HCT-116 colon,> 100 µM
same,GI50,HCT-15 colon,6.17 µM
same,TGI,HCT-15 colon,30.3 µM
same,GI50,HL-60(TB) leukemia,5.39 µM
same,TGI,HL-60(TB) leukemia,> 100 µM
same,GI50,HOP-62 NSCLC,33.1 µM
same,TGI,HOP-62 NSCLC,> 100 µM
same,GI50,HOP-92 NSCLC,15.2 µM
same,TGI,HOP-92 NSCLC,> 100 µM
same,GI50,HS 578T breast,18.8 µM
same,TGI,HS 578T breast,92.7 µM
same,GI50,HT29 colon,20.6 µM
same,TGI,HT29 colon,> 100 µM
same,GI50,IGROV1 ovarian,33.2 µM
same,TGI,IGROV1 ovarian,> 100 µM
same,GI50,K-562 leukemia,6.48 µM
same,TGI,K-562 leukemia,> 100 µM
same,GI50,KM12 colon,> 100 µM
same,TGI,KM12 colon,> 100 µM
same,GI50,LOX IMVI melanoma,4.35 µM
same,TGI,LOX IMVI melanoma,23.7 µM
same,GI50,M14 melanoma,31.3 µM
same,TGI,M14 melanoma,> 100 µM
same,GI50,MALME-3M melanoma,6.1 µM
same,TGI,MALME-3M melanoma,43 µM
same,GI50,MCF7 breast,4.58 µM
same,TGI,MCF7 breast,> 100 µM
same,GI50,MDA-MB-231 breast,4.72 µM
same,TGI,MDA-MB-231 breast,35.8 µM
same,GI50,MDA-MB-435,16.1 µM
same,TGI,MDA-MB-435,> 100 µM
same,GI50,MDA-MB-468 breast,13.2 µM
same,TGI,MDA-MB-468 breast,52.4 µM
same,GI50,MOLT-4 leukemia,3.3 µM
same,TGI,MOLT-4 leukemia,> 100 µM
same,GI50,NCI-H226 lung,25.6 µM
same,TGI,NCI-H226 lung,> 100 µM
same,GI50,NCI-H23 lung,12.9 µM
same,TGI,NCI-H23 lung,> 100 µM
same,GI50,NCI-H460 lung,17.8 µM
same,TGI,NCI-H460 lung,> 100 µM
same,GI50,NCI-H522 lung,3.07 µM
same,TGI,NCI-H522 lung,15.2 µM
same,GI50,NCI/ADR-RES ovarian,17.7 µM
same,TGI,NCI/ADR-RES ovarian,> 100 µM
same,GI50,OVCAR-3 ovarian,16.9 µM
same,TGI,OVCAR-3 ovarian,> 100 µM
same,GI50,OVCAR-4 ovarian,25.6 µM
same,TGI,OVCAR-4 ovarian,> 100 µM
same,GI50,OVCAR-5 ovarian,22.5 µM
same,TGI,OVCAR-5 ovarian,> 100 µM
same,GI50,OVCAR-8 ovarian,14.9 µM
same,TGI,OVCAR-8 ovarian,> 100 µM
same,GI50,PC-3 prostate,17.8 µM
same,TGI,PC-3 prostate,> 100 µM
same,GI50,RPMI-8226 leukemia,7.43 µM
same,TGI,RPMI-8226 leukemia,48.1 µM
same,GI50,RXF 393 renal,2.79 µM
same,TGI,RXF 393 renal,36.7 µM
same,GI50,SF-268 CNS,34.4 µM
same,TGI,SF-268 CNS,> 100 µM
same,GI50,SF-295 CNS,28.3 µM
same,TGI,SF-295 CNS,> 100 µM
same,GI50,SF-539 CNS,10.9 µM
same,TGI,SF-539 CNS,25.6 µM
same,GI50,SK-MEL-2 melanoma,17.9 µM
same,TGI,SK-MEL-2 melanoma,94.1 µM
same,GI50,SK-MEL-28 melanoma,25.7 µM
same,TGI,SK-MEL-28 melanoma,> 100 µM
same,GI50,SK-MEL-5 melanoma,13 µM
same,TGI,SK-MEL-5 melanoma,46.8 µM
same,GI50,SK-OV-3 ovarian,> 100 µM
same,TGI,SK-OV-3 ovarian,> 100 µM
same,GI50,SN12C renal,17.2 µM
same,TGI,SN12C renal,> 100 µM
same,GI50,SNB-19 CNS,51.5 µM
same,TGI,SNB-19 CNS,> 100 µM
same,GI50,SNB-75 CNS,24.7 µM
same,TGI,SNB-75 CNS,> 100 µM
same,GI50,SR leukemia,5.87 µM
same,TGI,SR leukemia,> 100 µM
same,GI50,SW-620 colon,7.26 µM
same,TGI,SW-620 colon,58.3 µM
same,GI50,T-47D breast,11.5 µM
same,TGI,T-47D breast,> 100 µM
same,GI50,TK-10 renal,76.3 µM
same,TGI,TK-10 renal,> 100 µM
same,GI50,U251 CNS,18.3 µM
same,TGI,U251 CNS,> 100 µM
same,GI50,UACC-257 melanoma,44.2 µM
same,TGI,UACC-257 melanoma,> 100 µM
same,GI50,UACC-62 melanoma,11.9 µM
same,TGI,UACC-62 melanoma,> 100 µM
same,GI50,UO-31 renal,24.9 µM
same,TGI,UO-31 renal,> 100 µM
